The values below are quoted from earlier work in patent US20210155895A1, “Pluripotent Stem Cell-Derived 3D Retinal Tissue and Uses Thereof” (LINEAGE CELL THERAPEUTICS, INC., priority 2016, published 2021).

Data set [1] deals with PR (photoreceptor) cells.
For data set [2], the system named is histone H3. To be noted: Koriyama et al. 2014.
The subject of data set [3] is PR (photoreceptors). The note with it: zaprinast 100 μM.

Turning to `CN(N=O)C(N)=O` [MNU, N-methyl, N-nitrosourea], the “time to PR cell death after application” value in data set [1] is listed as not above 7 days. Moreover, the PR cell death entry in data set [1] (involving the caspase pathway) was “selective and progressive PR cell death”.

As to `CCCC(CCC)C(=O)O` [valproic acid], the “effect on histone H3 acetylation” value in data set [2] is recorded as “induces histone H3 acetylation”.

For the molecule `CCCOc1ccccc1-c1nc2nn[nH]c2c(=O)[nH]1` [zaprinast], in data set [3], the PR degeneration entry was “induces PR degeneration at a level comparable to that observed in the mouse rd1 model” and the “effect on intracellular cGMP” value is “raises intracellular cGMP”.
